According to patent publication US20100022559A1, “BISOXIMES AS FUNGICIDES” (BAYER CROPSCIENCE AG, priority 2006, published 2010):
Like-named read-outs stand apart in the source and are kept apart here. One block for each molecule: values may come before it.

Assay: logP determination by HPLC on a reversed-phase column (C 18), EEC Directive 79/831 Annex V.A8
Type: physicochemical
Settings: for chromatographic logP: reversed-phase HPLC column (C 18)
Procedure: The stated logP values were determined in accordance with EEC Directive 79/831 Annex V.A8 by HPLC (high performance liquid chromatography) on a reversed-phase column (C 18). Temperature: 43° C.

[1] = HCO2H, HPLC reversed-phase column (C 18), 43° C., read-out: logP (HCO2H)
[2] = [a] acidic range, pH 2.3, 0.1% aqueous phosphoric acid and acetonitrile
[3] = [b] LC-MS, acidic range, pH 2.7, 0.1% aqueous formic acid and acetonitrile
[4] = [c] LC-MS, neutral range, pH 7.8, 0.001 molar aqueous ammonium bicarbonate solution and acetonitrile
[5] = method marker [a] (footnote not shown), isomer A / isomer B / isomer mixture as noted in the cell
[6] = method marker [b], isomer A / isomer B / isomer mixture as noted in the cell

logP (value marked [a]): 3.99^[a] | logP (value marked [b]): 3.99^[b] | logP (value marked [c]): 5.70^[c]
SMILES: CC(=NOCC1(CON=C(C)c2ccc(C)c(C)n2)CC1)c1cccc(C)n1 [Compound 786]

logP (value marked [a]): 5.05^[a] | logP (value marked [b]): 5.05^[b] | logP (value marked [c]): 7.36^[c]
SMILES: CC[Si](CC)(CON=C(C)c1cc(C)cc(C)n1)CON=C(C)c1cc(C)cc(C)n1 [Compound 787]

logP (value marked [b]): 5.73^[b] | logP (value marked [c]): 6.47^[c]
SMILES: CCC(C)(CON=C(C)c1cccc(C)n1)CON=C(C)c1cccc(C)n1 (stereo not shown) [Compound 788]

logP (value marked [a]): 1.95^[a]
SMILES: CC(=NOCC(C)CON=C(C)c1cccc(NCC2CC2)n1)c1cccc(NCC2CC2)n1 (stereo not shown) [Compound 791]

logP (value marked [b]): 5.39^[b] | logP (value marked [c]): 7.27^[c]
SMILES: CCC(C)(CON=C(C)c1ccc(C)c(C)n1)CON=C(C)c1ccc(C)c(C)n1 (stereo not shown) [Compound 793]

logP (value marked [b]): 3.91^[b] | logP (value marked [c]): 7.18^[c]
SMILES: CCC(C)(CON=C(C)c1cc(C)cc(C)n1)CON=C(C)c1cc(C)cc(C)n1 (stereo not shown) [Compound 794]

logP (value marked [a]): 7.36^[b][a] | logP (value marked [b]): 7.36^[b]
SMILES: CC(=NOCC(C)(C)CON=C(C)c1cccc(Cc2ccccc2)n1)c1cccc(Cc2ccccc2)n1 [Compound 798]

logP (value marked [a]): 4.96^[a] | logP (value marked [b]): 4.96^[b] | logP (value marked [c]): 6.34^[c]
SMILES: CC(=NOCC(C)(C)CON=C(C)c1ccc(C)c(C)n1)c1cccc(C)n1 [Compound 799]

logP (value marked [a]): 4.78^[a]
SMILES: CC(=NOCC(C)CON=C(C)c1cccc(C#N)n1)c1cccc(C#N)n1 (stereo not shown) [Compound 800]

logP (value marked [a]): 1.31^[a] | logP (value marked [c]): 5.25^[c]
SMILES: COc1cc(C)nc(C(C)=NOCC(C)CON=C(C)c2cc(OC)cc(C)n2)c1 (stereo not shown) [Compound 806]

logP (value marked [a]): 3.8^[a]
SMILES: C=C(CON=C(C)c1cccc(C)n1)CON=C(Cl)c1ccc(C)c(C)n1 [Compound 807]

logP (value marked [b]): 6.68^[b] | logP (value marked [c]): 6.97^[c]
SMILES: CCC(CC)(CON=C(C)c1cccc(C)n1)CON=C(C)c1cccc(C)n1 [Compound 809]

logP (value marked [b]): 6.50^[b] | logP (value marked [c]): 7.36^[c]
SMILES: CCC(CC)(CON=C(C)c1ccc(C)c(C)n1)CON=C(C)c1ccc(C)c(C)n1 [Compound 810]

logP (value marked [b]): 4.79^[b] | logP (value marked [c]): 7.36^[c]
SMILES: CCC(CC)(CON=C(C)c1cc(C)cc(C)n1)CON=C(C)c1cc(C)cc(C)n1 [Compound 811]

logP (value marked [a]): 1.34^[a] | logP (value marked [c]): 4.94^[c]
SMILES: COc1cc(C)nc(C(C)=NOCC2(CON=C(C)c3cc(OC)cc(C)n3)CC2)c1 [Compound 816]

logP (value marked [a]): 3.27^[a] | logP (value marked [c]): 7.14^[c]
SMILES: CC(=NOCC(C)(C)CON=C(C)c1cc(C2CC2)cc(C)n1)c1cc(C2CC2)cc(C)n1 [Compound 817]

logP (value marked [a]): 3.80^[a] | logP (value marked [c]): 6.57^[c]
SMILES: CC(=NOCC(C)(C)CON=C(C)c1cc(C2CC2)cc(C)n1)c1cccc(C)n1 [Compound 818]

logP (value marked [a]): 4.35^[a]
SMILES: CCSC(=NOCC(C)CON=C(SCC)c1cccc(C)n1)c1cccc(C)n1 (stereo not shown) [Compound 820]

logP (value marked [a]): 3.74^[a]
SMILES: C=C(CON=C(C)c1cccc(C)n1)CON=C(C#N)c1ccc(C)c(C)n1 [Compound 821]

logP (value marked [a]): 5.9^[a]
SMILES: CC(=NOCC1CCCCC1ON=C(C)c1cccc(C)n1)c1cccc(C)n1 (stereo not shown) [Compound 823]

logP (value marked [a]): 4.58^[a]
SMILES: Cc1cccc(C(Cl)=NOCC(C)CON=C(Cl)c2cccc(C)n2)n1 (stereo not shown) [Compound 824]

logP (value marked [b]): 5.21^[b] | logP (value marked [c]): 5.58^[c]
SMILES: COc1ccc(C(C)=NOCC(C)CON=C(C)c2ccc(OC)c(C)n2)nc1C (stereo not shown) [Compound 825]

logP (value marked [b]): 6.72^[b] | logP (value marked [c]): 7.29^[c]
SMILES: CC(=NOCC(C)CON=C(C)c1cccc([Si](C)(C)C)n1)c1ccccn1 (stereo not shown) [Compound 826]

logP (value marked [a]): 6.72^[a] | logP (value marked [b]): 6.72^[b] | logP (value marked [c]): 7.35^[c]
SMILES: CC(=NOC[Si](C)(CON=C(C)c1cccc(C)n1)C(C)C)c1cccc(C)n1 [Compound 834]

logP (value marked [a]): 1.95^[a]
SMILES: COC(=NOCC(C)CON=C(OC)c1cccc(C)n1)c1cccc(C)n1 (stereo not shown) [Compound 835]

logP (value marked [a]): 5.04^[a] | logP (value marked [b]): 5.04^[b] | logP (value marked [c]): 7.36^[c]
SMILES: CC(=NOC[Si](C)(CON=C(C)c1cc(C)cc(C)n1)C(C)C)c1cc(C)cc(C)n1 [Compound 836]

logP (value marked [a]): 6.76^[a] | logP (value marked [b]): 6.76^[b] | logP (value marked [c]): 7.36^[c]
SMILES: CC(=NOC[Si](C)(CON=C(C)c1ccc(C)c(C)n1)C(C)C)c1ccc(C)c(C)n1 [Compound 837]

logP (value marked [a]): 4.84^[a]
SMILES: Cc1cc(C)nc(C(C#N)=NOCC(C)CON=C(C#N)c2cc(C)cc(C)n2)c1 (stereo not shown) [Compound 838]

logP (value marked [a]): 1.5^[a] | logP (value marked [c]): 5.79^[c]
SMILES: COc1cc(C)nc(C(C)=NOCC(C)(C)CON=C(C)c2cc(OC)cc(C)n2)c1 [Compound 840]

logP (value marked [a]): 2.00^[a] | logP (value marked [c]): 6.90^[c]
SMILES: CCOc1cc(C)nc(C(C)=NOCC(C)(C)CON=C(C)c2cc(OCC)cc(C)n2)c1 [Compound 841]

logP (value marked [a]): 2.25^[a]
SMILES: C=C(CON=C(OCC)c1cccc(C)n1)CON=C(OCC)c1ccc(C)c(C)n1 [Compound 843]

logP (value marked [a]): 1.40^[a] | logP (value marked [c]): 5.93^[c]
SMILES: CC(=NOCC(C)CON=C(C)c1cc(N2CCCC2)cc(C)n1)c1cc(N2CCCC2)cc(C)n1 (stereo not shown) [Compound 847]

logP (value marked [a]): 7.36^[a]
SMILES: CC(=NOCC1(CON=C(C)c2cccc(C3CC3)n2)CC1)c1cccc(C2CC2)n1 [Compound 848]

logP (value marked [b]): 5.33^[b] | logP (value marked [c]): 5.44^[c]
SMILES: C#CCOc1ccc(C(C)=NOCC(C)CON=C(C)c2ccc(OCC#C)c(C)n2)nc1C (stereo not shown) [Compound 867]

logP (value marked [c]): 7.05^[c]
SMILES: CC(=NOC[Si](C)(C)CON=C(C)c1ccc(C)c(C)n1)c1ccc(C)c(C)n1 [Compound 870]

logP (value marked [b]): 4.06^[b] | logP (value marked [c]): 5.57^[c]
SMILES: COCc1cc(C)nc(C(C)=NOCC(C)CON=C(C)c2cc(COC)cc(C)n2)c1 (stereo not shown) [Compound 871]

chromatographic logP [1]: 2.87
SMILES: CC(CON1C(=O)c2ccccc2C1=O)CON1C(=O)c2ccccc2C1=O [IX-1, 2,2′-[(2-methylpropane-1,3-diyl)bis(oxy)]bis(1H-isoindole-1,3(2H)-dione)]

chromatographic logP [1]: 3.76
SMILES: C/C(=N\OCC(C)(C)CCl)c1cccc(C)n1 [VI-1, (1E)-1-(6-methylpyridin-2-yl)ethanone O-(3-chloro-2,2-dimethylpropyl)oxime]

logP [2]: 1.12^[a]
SMILES: Cc1cccc(C(=NOCCCON)C(C)C)n1 [XII-1]

logP [2]: 1.05^[a]
SMILES: Cc1cccc(C(=NOCCCON)C(C)C)n1 [XII-2]

logP [3]: 1.11^[b]
SMILES: C/C(=N\OCC(C)(C)CON)c1cccc(C)n1 [XII-4]

logP [2]: 0.98^[a] | logP [3]: 0.98^[b] | logP [4]: 2.94^[c]
SMILES: C/C(=N\OCC(C)(C)CON)c1ccc(C)c(C)n1 [XII-6]

chromatographic logP [1]: 0.73 | chromatographic logP ([a] acidic range, pH 2.3, 0.1% aqueous phosphoric acid and acetonitrile, read-out: logP): 0.53 | chromatographic logP ([b] LC-MS, acidic range, pH 2.7, 0.1% aqueous formic acid and acetonitrile, read-out: logP): 0.53 | chromatographic logP ([c] LC-MS, neutral range, pH 7.8, 0.001 molar aqueous ammonium bicarbonate solution and acetonitrile, read-out: logP): 2.44
SMILES: C/C(=N\OCC1(CON)CC1)c1ccc(C)c(C)n1 [XII-8, (1E)-1-(5,6-dimethylpyridin-2-yl)ethanone O-({1-[(aminooxy)methyl]-cyclopropyl}methyl)oxime]

logP [2]: 0.27^[a] | logP [3]: 0.27^[b] | logP [4]: 1.72^[c]
SMILES: C/C(=N\OCCCON)c1cccc(C)n1 [XII-10]

logP [2]: 0.61^[a] | logP [3]: 0.61^[b] | logP [4]: 2.42^[c]
SMILES: C/C(=N\OCC1(CON)CC1)c1cc(C)cc(C)n1 [XII-12]

logP [2]: 0.78^[a] | logP [3]: 0.78^[b] | logP [4]: 2.11^[c]
SMILES: C/C(=N\OCC1(CON)CC1)c1cccc(C)n1 [XII-13]

logP [2]: 0.8^[a] | logP [3]: 0.8^[b] | logP [4]: 2.89^[c]
SMILES: C/C(=N\OCC(C)(C)CON)c1cc(C)cc(C)n1 [XII-14]

logP [2]: 2.69^[a] | logP [3]: 2.69^[b] | logP [4]: 3.92^[c]
SMILES: C/C(=N\OCC(C)(C)CON)c1cc(C(F)(F)F)cc(C)n1 [XII-16]

logP [2]: 0.51^[a]
SMILES: C/C(=N\OCCCCON)c1ccc(C)c(C)n1 [XII-17]

logP [5]: 1.73^[a]
SMILES: CC(=NOCC(C)(O)CON=C(C)c1ccccn1)c1ccccn1 (stereo not shown) [compound 2]

logP [5]: 1.50^[a]
SMILES: CC(=NOCC(O)CON=C(C)c1ccccn1)c1ccccn1 (stereo not shown) [compound 3]

logP [6]: 1.73^[b]
SMILES: Cc1cc(C)nc(/C(N)=N/OCCCCO/N=C(\N)c2nc(C)cc(C)n2)n1 [compound 4]

logP [6]: 1.49^[b]
SMILES: Cc1cc(C)nc(/C(N)=N/OCO/N=C(\N)c2nc(C)cc(C)n2)n1 [compound 5]

logP [6]: 3,16^[b]
SMILES: CC(=NOCCCCON=C(C)c1cccc(C)n1)c1cccc(C)n1 [compound 6]

logP [6]: 2.39^[b]
SMILES: CC(=NOCON=C(C)c1cccc(C)n1)c1cccc(C)n1 [compound 7]

logP [6]: 1.80^[b]
SMILES: C=C(CO/N=C(\N)c1nc(C)cc(C)n1)CO/N=C(\N)c1nc(C)cc(C)n1 [compound 8]

logP [6]: 2.45^[b]
SMILES: CC(=NOCC1(CON=C(C)c2cccc(C)n2)COC1)c1cccc(C)n1 [compound 19]

logP [6]: 5.88^[b]
SMILES: C=C(CON=C(C)c1ccc(Cl)s1)CON=C(C)c1ccc(Cl)s1 [compound 20]

logP [6]: 5.03^[b]
SMILES: C=C(CON=C(C)c1cccn1C)CON=C(C)c1cccn1C [compound 21]

logP [6]: 1.37^[b]
SMILES: C=C(CON=C(C)c1ccc(C)nc1)CON=C(C)c1ccc(C)nc1 [compound 22]

logP [6]: 6.30^[b]
SMILES: C=C(CON=C(C)c1cc(Cl)cc(Cl)c1)CON=C(C)c1cccc(C)n1 [compound 24]

logP [6]: 3,57^[b]
SMILES: C=C(CON=C(C)c1c(C)noc1C)CON=C(C)c1c(C)noc1C [compound 25]

logP [6]: 0.66^[b]
SMILES: CC(=NOCCON=C(C)c1ccncc1)c1ccncc1 [compound 28]

logP [6]: 1.23^b]
SMILES: CC(=NOCCCON=C(C)c1ccncc1)c1ccncc1 [compound 29]
